According to the supplement of paper PMC8617591:

Columns and labels:
[1] = test system: Mycobacterium tuberculosis Erdman (autoluminescent); experiment: total FIC50 (Loewe) at 50% inhibition, three-drug combination (log2); higher = more antagonistic
Description: (§1)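 DiaMOND equipotent three-drug combination dose responses (10 doses, 1.5- or 2-fold spacing, centred on IC90) against autoluminescent M. tuberculosis Erdman in 8 in vitro models. Read-out is OD600, or luminescence for the intracellular and dormancy models, normalised to untreated wells. Hill-fit Einf, AUC25 and GRinf are potency metrics; FIC50 and FIC90 are total Loewe fractional inhibitory concentrations as log2 (negative = synergy).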

[2] = test system: Mycobacterium tuberculosis Erdman (autoluminescent); experiment: total FIC90 (Loewe) at 90% inhibition, three-drug combination (log2); higher = more antagonistic
Description: as §1

[3] = test system: Mycobacterium tuberculosis Erdman (autoluminescent); experiment: Einf, fitted maximum growth inhibition of three-drug combination (fraction); higher = stronger maximal inhibition
Description: as §1

[4] = test system: Mycobacterium tuberculosis Erdman (autoluminescent); experiment: AUC25, normalised area under dose response up to IC25 (three-drug combination) (fraction (0-1)); higher = more potent at low dose
Description: as §1

[5] = test system: Mycobacterium tuberculosis Erdman (autoluminescent); experiment: GRinf, maximum normalised growth rate inhibition (three-drug combination) (unitless (-1 to 1)); higher = less effect (negative = killing)
Description: as §1

NNC(=O)c1ccncc1 [isoniazid] + NC(=O)c1cnccn1 [pyrazinamide] + CO[C@H]1/C=C/O[C@@]2(C)Oc3c(C)c(O)c4c(O)c(c(/C=N/N5CCN(C)CC5)c(O)c4c3C2=O)NC(=O)/C(C)=C\C=C\[C@H](C)[C@H](O)[C@@H](C)[C@@H](O)[C@@H](C)[C@H](OC(C)=O)[C@@H]1C [rifampicin]
Details | AUC25, [4] | Einf, [3] | GRinf, [5] | total FIC50, [1] | total FIC90, [2]
in vitro model: acidic pH 5.7, time point: constant (~7 days, model-specific) | 0.0814 | 0.864 | -0.12 | -1.79 | –
in vitro model: acidic pH 5.7, time point: terminal (~4-5 doublings, model-specific) | 0.0574 | 0.988 | -0.193 | -1.2 | -1.75
in vitro model: intracellular J774, time point: constant = terminal | – | 0.976 | -0.255 | – | 0.327

Details | AUC25, [4] | Einf, [3] | GRinf, [5] | total FIC50, [1] | total FIC90, [2]
in vitro model: butyrate, time point: constant (~7 days, model-specific) | 0.103 | 0.921 | 0.00703 | -2.04 | 0.665
in vitro model: butyrate, time point: terminal (~4-5 doublings, model-specific) | 0.0827 | 0.967 | 0.0033 | -2.09 | -2.12
in vitro model: cholesterol 0.05 mM, time point: constant (~7 days, model-specific) | 0.088 | 0.633 | -0.0371 | – | –
in vitro model: cholesterol 0.05 mM, time point: terminal (~4-5 doublings, model-specific) | 0.0858 | 0.865 | -0.1 | 0.166 | –
in vitro model: cholesterol-high 0.2 mM, time point: constant (~7 days, model-specific) | 0.0657 | 0.91 | -0.258 | 0.702 | –
in vitro model: cholesterol-high 0.2 mM, time point: terminal (~4-5 doublings, model-specific) | 0.0664 | 1 | -0.795 | 1.16 | 0.74
in vitro model: dormancy (butyrate + nitrate, low O2), time point: constant (~7 days, model-specific) | 0.0642 | 0.891 | 0.224 | -2.66 | -3.39
in vitro model: dormancy (butyrate + nitrate, low O2), time point: terminal (~4-5 doublings, model-specific) | 0.0565 | 0.979 | -0.0973 | -3.09 | -2.85
in vitro model: standard 7H9 glycerol, time point: constant = terminal | 0.0763 | 0.917 | 0.0491 | -5.81 | –
in vitro model: valerate, time point: constant (~7 days, model-specific) | 0.0587 | 0.86 | 0.0565 | -2.11 | –
in vitro model: valerate, time point: terminal (~4-5 doublings, model-specific) | 0.0331 | 0.928 | 0.0571 | -1.04 | -1.36

CC(C)/N=c1\cc2n(-c3ccc(Cl)cc3)c3ccccc3nc-2cc1Nc1ccc(Cl)cc1 [clofazimine] + NC(=O)c1cnccn1 [pyrazinamide] + CO[C@H]1/C=C/O[C@@]2(C)Oc3c(C)c(O)c4c(O)c(c(/C=N/N5CCN(C6CCCC6)CC5)c(O)c4c3C2=O)NC(=O)/C(C)=C\C=C\[C@H](C)[C@H](O)[C@@H](C)[C@@H](O)[C@@H](C)[C@H](OC(C)=O)[C@@H]1C [rifapentine]
Details | AUC25, [4] | Einf, [3] | GRinf, [5] | total FIC50, [1] | total FIC90, [2]
in vitro model: acidic pH 5.7, time point: constant (~7 days, model-specific) | 0.0912 | 0.872 | -0.0882 | -0.248 | –
in vitro model: acidic pH 5.7, time point: terminal (~4-5 doublings, model-specific) | 0.0866 | 0.992 | -0.166 | -0.185 | -0.282
in vitro model: intracellular J774, time point: constant = terminal | – | 0.987 | -0.31 | – | -0.162

Details | AUC25, [4] | Einf, [3] | GRinf, [5] | total FIC50, [1] | total FIC90, [2]
in vitro model: butyrate, time point: constant (~7 days, model-specific) | 0.112 | 0.934 | -0.137 | 0.135 | 0.657
in vitro model: butyrate, time point: terminal (~4-5 doublings, model-specific) | 0.0906 | 0.969 | -0.0833 | 0.161 | 0.364
in vitro model: cholesterol 0.05 mM, time point: constant (~7 days, model-specific) | 0.142 | 0.621 | -0.201 | – | –
in vitro model: cholesterol 0.05 mM, time point: terminal (~4-5 doublings, model-specific) | 0.111 | 0.899 | -0.27 | 0.876 | –
in vitro model: cholesterol-high 0.2 mM, time point: constant (~7 days, model-specific) | 0.121 | 0.905 | -0.547 | 0.527 | –
in vitro model: cholesterol-high 0.2 mM, time point: terminal (~4-5 doublings, model-specific) | 0.0971 | 0.984 | -0.634 | 0.828 | 0.832
in vitro model: dormancy (butyrate + nitrate, low O2), time point: constant (~7 days, model-specific) | 0.0828 | 0.929 | 0.0852 | -0.285 | -1.22
in vitro model: dormancy (butyrate + nitrate, low O2), time point: terminal (~4-5 doublings, model-specific) | 0.0573 | 0.993 | -0.269 | -0.0992 | 0.0246
in vitro model: standard 7H9 glycerol, time point: constant = terminal | 0.115 | 0.936 | -0.0744 | -0.0271 | –
in vitro model: valerate, time point: constant (~7 days, model-specific) | 0.118 | 0.911 | -0.101 | 0.0622 | –
in vitro model: valerate, time point: terminal (~4-5 doublings, model-specific) | 0.0526 | 0.901 | 0.0624 | 0.391 | 1.33

COc1nc2ccc(Br)cc2cc1[C@@H](c1ccccc1)[C@@](O)(CCN(C)C)c1cccc2ccccc12 [bedaquiline] + CC(C)/N=c1\cc2n(-c3ccc(Cl)cc3)c3ccccc3nc-2cc1Nc1ccc(Cl)cc1 [clofazimine] + O=[N+]([O-])c1cn2c(n1)OC[C@@H](OCc1ccc(OC(F)(F)F)cc1)C2 [pretomanid]
Details | AUC25, [4] | Einf, [3] | GRinf, [5] | total FIC50, [1] | total FIC90, [2]
in vitro model: acidic pH 5.7, time point: constant (~7 days, model-specific) | 0.106 | 0.809 | -0.477 | 0.502 | –
in vitro model: acidic pH 5.7, time point: terminal (~4-5 doublings, model-specific) | 0.0881 | 0.968 | -0.411 | 0.438 | 0.703
in vitro model: intracellular J774, time point: constant = terminal | – | 0.986 | -0.307 | – | 0.235

Details | AUC25, [4] | Einf, [3] | GRinf, [5] | total FIC50, [1] | total FIC90, [2]
in vitro model: butyrate, time point: constant (~7 days, model-specific) | 0.0748 | 0.948 | -0.105 | 0.0794 | -0.148
in vitro model: butyrate, time point: terminal (~4-5 doublings, model-specific) | 0.0598 | 0.982 | -0.123 | 0.0162 | -0.232
in vitro model: cholesterol 0.05 mM, time point: constant (~7 days, model-specific) | 0.101 | 0.724 | -0.148 | 0.099 | –
in vitro model: cholesterol 0.05 mM, time point: terminal (~4-5 doublings, model-specific) | 0.111 | 0.938 | -0.208 | 0.567 | 0.307
in vitro model: cholesterol-high 0.2 mM, time point: constant (~7 days, model-specific) | 0.0786 | 0.94 | -0.226 | 0.161 | 0.852
in vitro model: cholesterol-high 0.2 mM, time point: terminal (~4-5 doublings, model-specific) | 0.0851 | 1 | -0.559 | 0.209 | 0.0625
in vitro model: dormancy (butyrate + nitrate, low O2), time point: constant (~7 days, model-specific) | 0.0645 | 0.942 | 0.201 | -0.378 | -1.22
in vitro model: dormancy (butyrate + nitrate, low O2), time point: terminal (~4-5 doublings, model-specific) | 0.077 | 0.996 | -0.219 | -1.08 | -1.15
in vitro model: standard 7H9 glycerol, time point: constant = terminal | 0.0956 | 0.967 | -0.0799 | -0.29 | -0.495
in vitro model: valerate, time point: constant (~7 days, model-specific) | 0.119 | 0.91 | -0.0979 | 0.482 | -0.269
in vitro model: valerate, time point: terminal (~4-5 doublings, model-specific) | 0.0785 | 0.954 | -0.0498 | 0.323 | 0.514
